Experimental data taken from patent US20090156496A1, “METHODS AND COMPOSITIONS FOR TREATING AND PREVENTING PERIPHERAL NERVE DAMAGE” (CHILDREN'S MEDICAL CENTER CORPORATION, INC., priority 2006, published 2009).
“Also recorded” adds a separate entry of the source. Numbered stars: 1 amine (or outer) side, 2 acyl side, 3 side chain; on linkers, the order of the positions; unused ones are H or OH. Bridge positions count the residues as written; N and C are the ends. Square brackets hold non-standard residues; d marks the D form. Peptide text beside a SMILES is read from it. I, II: the chains in the order shown. Actinocin(9to1) = Cc1c2oc3c(C)ccc(C(=O)[*:1])c3nc-2c(C(=O)[*:2])c(N)c1=O; NMeV = CN[C@H](C(=O)O)C(C)C; Sar = CNCC(=O)O

Assays:
mature RGCs = settings: previously reported; cited from earlier work
RGCs [1] = assay: axon outgrowth in primary adult retinal cultures; format: cell-based, rat; settings: for effect of inhibitor on oncomodulin-induced axon outgrowth: PD98059 5 μM, LY 294002 20 μM, Jaki 20 nM, KN92 10 μM, ActD 8 nM
Description: Protein A beads (Sigma) were incubated with either rabbit anti-OM antiserum (Swant) or normal rabbit serum (Invitrogen) for 16 h at 4° C. After extensive rinsing, beads with adsorbed IgGs were mixed with MCM (1 ml 10× concentrate, collected 8 h after zymosan treatment) for 24 h at 4° C. and then pelleted down by centrifugation. We tested 5 μl of the supernatants or untreated MCM for oncomodulin by western blotting. Bioactivity of immune-depleted and control MCM was tested in dissociated RGC cultures as described below at a 1:4 dilution, a concentration found to give a near-maximal response.
(§1) Adult rat retinal cultures were prepared as described^21. […] One week later, retinas were dissected, dissociated, and the cells plated in defined, serum-free medium. Axon growth (% RGCs extending axons ≧30 μm, ≧70 μm or ≧140 μm in length) was evaluated after 3 d in quadruplicate samples in a blinded fashion. All experiments were repeated at least three separate times. In some instances, cells were immunostained with GAP-43 antibody (1:500, Chemicon).

RGCs [2] = assay: RGC survival in primary retinal cultures; format: cell-based, rat
Description: as §1

DRG neurons = assay: neurite outgrowth of DRG neurons cultured after intraganglionic injection in vivo; format: cell-based, rat; settings: CSPG substrate
Description: L4-L5 DRGs from adult male Sprague-Dawley rats (250-300 g) were injected with 5 μl of saline or oncomodulin (200 ng μl^−1). After 7 d, injected ganglia were dissected and single-cell suspensions were prepared as described^50. Cells were cultured on laminin (Sigma) with or without CSPGs (Chemicon) for 20 h or 40 h. In some cases, chondroitinase ABC (0.5 U ml^−1, Seikagaku) was added. Neurite outgrowth was visualized by Tuj1 antibody to class III β-tubulin (1:5,000, Babco) and quantified in quadruplicate samples by a blinded observer. In other studies, L4-L5 DRG neurons were cultured in the presence of absence of oncomodulin, mannose and/or forskolin in RPMI-1640 to limit spontaneous outgrowth. Cells were fixed and immunostained after 3 d and evaluated for outgrowth.

Compound | axon extension of mature RGCs in culture (mature RGCs) | effect of inhibitor on oncomodulin-induced axon outgrowth (RGCs [1]; KN93 10 μM) | further results
fibroblast growth factor-2 | do not stimulate mature RGCs to extend axons | – | –
calmodulin | – | – | axon outgrowth bioassay, Ca2+-binding proteins (RGCs [1]; 15 nM or tenfold higher concentration, forskolin and mannose present): inactive
COc1cccc(-c2cc(=O)c3ccccc3o2)c1N [PD98059, reference compound] | – | not blocked; also recorded: enhanced outgrowth slightly | –
Cc1c2oc3c(C)ccc(C(=O)N[C@@H]4C(=O)N[C@H](C(C)C)C(=O)N5CCC[C@H]5C(=O)N(C)CC(=O)N(C)[C@@H](C(C)C)C(=O)O[C@@H]4C)c3nc-2c(C(=O)N[C@@H]2C(=O)N[C@H](C(C)C)C(=O)N3CCC[C@H]3C(=O)N(C)CC(=O)N(C)[C@@H](C(C)C)C(=O)O[C@@H]2C)c(N)c1=O [actinomycin D, reference compound] (I: T[dV]P[Sar][NMeV] / II: T[dV]P[Sar][NMeV]; ester I:1-I:C, II:1-II:C; linker I:N-II:N via Actinocin(9to1)) | – | blocked the effects of oncomodulin on outgrowth | RGC survival (RGCs [2]; retinal culture): without altering RGC survival
interleukin-6 | do not stimulate mature RGCs to extend axons | – | –
epidermal growth factor | do not stimulate mature RGCs to extend axons | – | –
chondroitinase ABC | – | – | DRG neurite outgrowth on nonpermissive substrate (DRG neurons): promoted some outgrowth
CC(C)(C)c1nc2c3cc[nH]c(=O)c3c3cc(F)ccc3c2[nH]1 [Jaki, reference compound] | – | did not diminish oncomodulin's activity | –
COc1ccc(S(=O)(=O)N(CCO)c2ccccc2CN(C)C/C=C/c2ccc(Cl)cc2)cc1 [KN93, reference compound] | – | blocked the effect of oncomodulin fully | effect of inhibitor on outgrowth induced by forskolin plus mannose (RGCs [1]; KN93 10 μM, three inhibitors combined): without altering the effect of mannose and forskolin
COc1ccc(S(=O)(=O)Nc2ccccc2CN(C)C/C=C/c2ccc(Cl)cc2)cc1 [KN92, reference compound] | – | did not substantially diminish outgrowth | –
Lysozyme | – | – | axon outgrowth from RGCs (RGCs [1]; data not shown): did not enhance outgrowth; diminished RGC survival (RGCs [2]; data not shown): ~25%
CCCC(=O)Nc1ncnc2c1ncn2[C@@H]1O[C@@H]2COP(=O)(O)O[C@H]2[C@H]1OC(=O)CCC [dibutyryl cAMP, reference compound] | – | – | effect on oncomodulin-induced outgrowth (RGCs [1]; [dB-cAMP] above 250 μM): further increases diminished outgrowth; effect on oncomodulin-induced outgrowth (RGCs [1]; [dB-cAMP] up to 250 μM): enhanced the effect of oncomodulin
nerve growth factor | do not stimulate mature RGCs to extend axons | – | –
